pIC50: −log10 of the molar value.
Key:
[1] = stability in human liver microsomes; type: in vitro ADME; conditions: both sexes, human liver microsomes, pH 7.4, 1 μM, HLM 0.5 mg/mL, 37°C, 1 h, mean of duplicates, read-out: HLM stability t1/2
Method: Experiments were performed by Pharmaron, Inc., China. […] Negative control samples were prepared by replacing the NADPH solution with ultrapure H2O. The negative controls were used to exclude the confounding variable of test compound instability. Experiments involving NADPH were carried out in duplicate. Negative controls were prepared in singlet. Aliquots (90 µL) were taken at 0, 15, 30, 45, and 60 min of incubation. The microsomal reaction in each aliquot was stopped by the addition of four volumes of cold acetonitrile containing internal standards (100 nM alprazolam, 200 nM imipramine, 200 nM labetalol, and 2 µM ketoprofen). The samples were centrifuged at 3,220 × g for 40 min, and an aliquot (90 µL) of the supernatant was mixed with 90 µL of ultrapure H2O. The resulting mixture was used for liquid chromatography–tandem mass spectrometry (LC-MS/MS) analysis (Shimadzu and SCIEX Triple Quad 4500). Peak areas were determined from extracted ion chromatograms. A slope, k, was determined by linear regression analysis of a plot of the natural logarithm of the remaining percentage of the parent drug versus incubation time. The in vitro t1/2 (min) was determined from the slope: in vitro t1/2=−(0.693/k) In vitro t1/2 (min, mean of duplicate determinations) was converted to in vitro intrinsic clearance (in vitro Clint, μL/(min·µg protein)) by means of the following equation : in vitro Clint=(0.693/t1/2)×(volume of incubation (μL)/amount of protein (μg))

[2] = system: HepG2 cells; conditions: cited from earlier work
[3] = system: M. leprae; assay: Shepard's mouse footpad model: bacilli count and molecular viability; type: in vivo, Mycobacterium leprae; conditions: Balb/c mice, 1 month, vehicle median 8.110 × 10^4
Method: Animal experimentation was conducted under approval by the ILSL ethical committee ([…] 02/19). Balb/c female mice with 8-week-old were inoculated with 5 × 10^3 live M. leprae bacilli, strain Thai-53, in both hind footpads, as previously described for the Shepard's model ([25]). Eight groups were tested in the experiment: (i) M. leprae control group (n = 5) inoculated with M. leprae and no additional treatment; (ii) vehicle control group (n = 4) inoculated with M. leprae and treatment with vehicle of the drugs; (iii) regular rifampicin treatment, 10 mg/Kg dose; […] (v) compound 2 treatment (n = 4), 50 mg/kg dose; […] One month after inoculation, mice from the control group were euthanized and the hind footpad was collected to assess the establishment of the infection by bacillary enumeration. At that time point, vehicle or drug treatment was started for the remaining groups. All compounds were administrated by gavage, rifampicin was administered weekly, and the compounds were administered daily (excluding weekends) for 1 month (20 doses). Mice were euthanized 6 h after administration of the last dose, and blood was collected in heparin-coated tubes by cardiac puncture for blood enzyme evaluation and compound 5 measurement by LC/MS in the plasma. The infected hind footpads from each group of mice were excised, homogenized and bacilli enumerated in a 100 μL aliquot as previously described ([26]). The remaining homogenate was centrifuged at 12,000 × g for 15 min, the supernatant was discarded, and the pellet was suspended in 750 μL of RNA later solution (Thermo Fisher Scientific). The homogenized tissue pellet was incubated at 4°C for 16 h and stored at -80°C until determination of M. leprae viability was performed by RT-qPCR ([27], [28]). […] RNA and DNA extractions were performed as previously described ([10], [27]). RNA samples were treated with the Turbo DNA-free kit (Thermo Fisher Scientific), and 1,000 ng of DNAse-treated RNA was then used to synthesize the cDNA using the GoScript kit (Promega, USA).

Row | half-life at 1 µM [1] [h] | Structure (SMILES) | pIC50 [2] | bacillary load in footpad, median ([3]; rifampicin 10 mg/kg weekly by gavage) | bacillary load in footpad, median ([3]; sub-inhibitory rifampicin 1 mg/kg weekly by gavage)
1 | 0.75 | C[C@]12CCC3C(CN(CCCF)C4CC(=O)CC[C@]34C)C1CCC2C(=O)Nc1cc(C(F)(F)F)ccc1C(F)(F)F (some centres unmarked) [Compound 3] | < 4.00 | – | –
2 | 1.05 | C[C@]12CCC3C(CN(CCC(F)(F)F)C4CC(=O)CC[C@]34C)C1CCC2C(=O)Nc1cc(C(F)(F)F)ccc1C(F)(F)F (some centres unmarked) [Compound 4] | < 4.00 | – | –
3 | 5.62 | CCCN1CC2C3CCC(C(=O)NC(c4ccc(F)cc4)c4ccc(F)cc4)[C@@]3(C)CCC2[C@@]2(C)CCC(=O)C=C12 (some centres unmarked) [Compound 6] | < 4.00 | – | –
4 | – | CO[C@H]1/C=C/O[C@@]2(C)Oc3c(C)c(O)c4c(O)c(c(/C=N/N5CCN(C)CC5)c(O)c4c3C2=O)NC(=O)/C(C)=C\C=C\[C@H](C)[C@H](O)[C@@H](C)[C@@H](O)[C@@H](C)[C@H](OC(C)=O)[C@@H]1C [rifampicin, reference compound] | – | 0.438 × 10^4 | 7.890 × 10^4
